For test [1], the system named is Vitis vinifera. Kind of test: Induction of pterostilbene accumulation in Vitis vinifera cv. Cabernet Sauvignon foliar cuttings assessed per dry weight of plant at 0.5 g/L measured after 24 to 72 hr post dose by fluorimetry. Type of test: functional.
The test system of test [2] is Vitis vinifera. The test can be described thus: Induction of delta-viniferin accumulation in Vitis vinifera cv. Cabernet Sauvignon foliar cuttings assessed per dry weight of plant at 0.5 g/L measured after 72 hr post dose by fluorimetry. Type of test: functional.
Test [3] concerns Vitis vinifera. Kind of test: Induction of delta-viniferin accumulation in Vitis vinifera cv. Cabernet Sauvignon foliar cuttings assessed per dry weight of plant at 0.5 g/L measured after 24 hr post dose by fluorimetry. Format: functional.
Test [4] deals with Vitis vinifera. The test can be described thus: Induction of epsilon-viniferin accumulation in Vitis vinifera cv. Cabernet Sauvignon foliar cuttings assessed per dry weight of plant at 0.5 g/L measured after 24 hr post dose by fluorimetry. Format: functional.
The test system of test [5] is Vitis vinifera. Kind of test: Induction of trans-resveratrol accumulation in Vitis vinifera cv. Cabernet Sauvignon foliar cuttings assessed per dry weight of plant at 0.5 g/L measured after 24 to 72 hr post dose by fluorimetry. Format: functional.
Test [6] deals with Vitis vinifera. The test can be described thus: Induction of trans-piceid accumulation in Vitis vinifera cv. Cabernet Sauvignon foliar cuttings assessed per dry weight of plant at 0.5 g/L measured after 72 hr post dose by fluorimetry. Type of test: functional.
Test [7] deals with Erysiphe necator. The test can be described thus: Fungicidal activity against Erysiphe necator infected 72 hr compound pre-treated grapevine leaf disks assessed as reduction in fungal colonization measured 14 days post fungal inoculation. Type of test: functional. Details: scale not given: the % may be the effect or the level left.
Test [8] deals with Vitis vinifera. The test can be described thus: Induction of trans-stilbenes in Vitis vinifera cv. Cabernet Sauvignon foliar cuttings at 0.5 g/L measured after 20 to 80 hr post dose by fluorimetry. Format: functional, organism-based.
The subject of test [9] is Erysiphe necator. The test can be described thus: Fungicidal activity against Erysiphe necator infected 72 hr compound pre-treated grapevine foliar cuttings assessed as reduction in powdery mildew infection measured 14 days post fungal inoculation. More on the design: scale not given: the % may be the effect or the level left. Type of test: functional.
For test [10], the system named is Vitis vinifera. The test can be described thus: Increase in polygalacturonase-inhibiting protein gene expression in Vitis vinifera cv. Cabernet Sauvignon foliar cuttings at 0.5 g/L measured after 12 to 24 hr post dose by RTq-PCR method relative to untreated control. Type of test: functional.
The test system of test [11] is Vitis vinifera. Kind of test: Increase in beta-1,3- glucanase gene expression in Vitis vinifera cv. Cabernet Sauvignon foliar cuttings at 0.5 g/L measured after 12 to 24 hr post dose by RTq-PCR method relative to untreated control. Type of test: functional.
The subject of test [12] is Vitis vinifera. Kind of test: Increase in […] protease inhibitor gene expression in Vitis vinifera cv. Cabernet Sauvignon foliar cuttings at 0.5 g/L measured after 12 to 72 hr post dose by RTq-PCR method relative to untreated control. Format: functional.
Test [13] has as its system Vitis vinifera. The test can be described thus: Increase in […] class IV chitinase gene expression in Vitis vinifera cv. Cabernet Sauvignon foliar cuttings at 0.5 g/L measured after 6 hr post dose by RTq-PCR method relative to untreated control. Type of test: functional.
Test [14] has as its system Vitis vinifera. The test can be described thus: Increase in phenylalanine stilbene synthase gene expression in Vitis vinifera cv. Cabernet Sauvignon foliar cuttings at 0.5 g/L measured after 6 hr post dose by RTq-PCR method relative to untreated control. Format: functional.
For test [15], the system named is Vitis vinifera. Kind of test: Increase in phenylalanine ammonia lyase gene expression in Vitis vinifera cv. Cabernet Sauvignon foliar cuttings at 0.5 g/L measured after 6 hr post dose by RTq-PCR method relative to untreated control. Type of test: functional.

Molecules are shown by their SMILES. Active and inactive are the calls of the source. No cut-off for these calls is given here.

For the compound `O=P(O)(O)CCCl` [ETHEPHON], the Activity was 10 nmol/g in the test on Vitis vinifera [1]; 6 nmol/g with Vitis vinifera [2]; 12 nmol/g with Vitis vinifera [3]; 58 nmol/g with Vitis vinifera [4]; 133 nmol/g in the test on Vitis vinifera [5]; 312 nmol/g in the test with Vitis vinifera [6]. The values for the Activity in the test on Erysiphe necator [7] and in the test with Erysiphe necator [9] were 64% and 70%, respectively. Also, the outcome in the test on Vitis vinifera [8] was Active. Further, the “fold change (FC)” value in the test on Vitis vinifera [10] stood at 22; in the test with Vitis vinifera [11], 33; with Vitis vinifera [12] it was 9; in the test on Vitis vinifera [13], 11; with Vitis vinifera [14], 67; with Vitis vinifera [15], 10.
